# Results as given in US6599705B2, “Regulation of fungal gene expression” (priority 1997, dated 2003).
# Tests used:
# C. albicans = assay: dig assay (nonfilamentous agar invasion) on YPD gradient plates; assay type: cell-based; settings: YPD agar with fluconazole gradient, two days, washed with water (FIG. 12)
# Text: We have discovered that pathogenic fungi can display similar digging behavior, characterized by increased invasion into or adherence to a defined substrate. […] This behavior is similar to the reported digging behavior of S. cerevisiae. As is true for S. cerevisiae, non-hyphal agar invasion by any given C. albicans mutant strain correlates with the ability of that strain to form filaments under filament-inducing conditions (e.g., agar+serum). Thus, screening for compounds that block the digging phenotype in fungi will allow for identification of compounds that block filament formation and, as a result, pathogenesis. These compounds are considered useful as fungicides or fungistats. Similarly, screening for compounds that increase substrate invasion will allow for identification of compounds which may also increase production or yield of secondary metabolites.
# An example of the dig assay is given below. To test whether a chemical compound would affect the nonfilamentous agar invasion behavior of nonmutant S. cerevisiae or C. albicans at concentrations much lower than the lowest growth inhibitory concentration, these fungi were spotted onto agar plates containing rich medium (YPD) and a gradient of the antifungal fluconazole. The plates were then incubated for two days at optimum growth temperatures and washed with water. […]
# S. cerevisiae = assay: as above; assay type: cell-based; settings: YPD agar with fluconazole gradient, two days, washed with water (FIG. 12)
# Text: Another example of a screen is based on the observation that yeast from haploid S. cerevisiae invade agar when grown on rich (YPD) medium without forming pseudohyphae. This nonfilamentous invasion behavior has been termed “digging,” and the assay used to detect this behavior has been termed the “dig assay.” Roberts and Fink, supra. […] Mutant strains defective for digging are referred to as “dig minus,” or “dig−.” The correlation of pseudohyphal invasion and behavior in the dig assay is an essential aspect of this screen. The dig assay is comparatively easy to perform relative to pseudohyphal invasion assays, and, as it occurs in haploid cells, is more amenable to genetic approaches that rely upon recessive mutations.
# An example of the dig assay is given below. To test whether a chemical compound would affect the nonfilamentous agar invasion behavior of nonmutant S. cerevisiae or C. albicans at concentrations much lower than the lowest growth inhibitory concentration, these fungi were spotted onto agar plates containing rich medium (YPD) and a gradient of the antifungal fluconazole. The plates were then incubated for two days at optimum growth temperatures and washed with water. […] This assay can be performed on other dimorphic fungi, such as U. maydis, as well as on other fungi. […]
smiles,measurement,setting,value
OC(Cn1cncn1)(Cn1cncn1)c1ccc(F)cc1F [fluconazole],inhibition of agar invasion relative to growth inhibition,C. albicans,inhibition of agar invasion at significantly lower concentrations of fluconazole than those necessary to inhibit growth
same,inhibition of agar invasion relative to growth inhibition,S. cerevisiae,inhibition of agar invasion at significantly lower concentrations of fluconazole than those necessary to inhibit growth
